Earlier results as cited in patent publication US20200057081A1, “System and Method for Managing Animal Cancers by Disabling the Cancer Cells Ability to Reproduce” (priority 2018, published 2020).

Key:
[1] = system: tumors transplanted to mice
Drp1/Fis1 interaction = Drp1/Fis1 interaction (Homo sapiens, UniProt O00429)
[2] = system: cultured cancer cell lines; settings: multiple cell lines
mitochondria = settings: Bid-activated, Bax/Bak-dependent, in vitro
dynamin GTPase = biological target: T1, dynamin GTPase (Homo sapiens, UniProt O00429); settings: in mammalian cells; read-out: IC50, inhibition of mitochondrial division / dynamin GTPase activity
T1 construct: host or cells: mammalian cells (not specified)
T1 sequence (O00429 whole entry): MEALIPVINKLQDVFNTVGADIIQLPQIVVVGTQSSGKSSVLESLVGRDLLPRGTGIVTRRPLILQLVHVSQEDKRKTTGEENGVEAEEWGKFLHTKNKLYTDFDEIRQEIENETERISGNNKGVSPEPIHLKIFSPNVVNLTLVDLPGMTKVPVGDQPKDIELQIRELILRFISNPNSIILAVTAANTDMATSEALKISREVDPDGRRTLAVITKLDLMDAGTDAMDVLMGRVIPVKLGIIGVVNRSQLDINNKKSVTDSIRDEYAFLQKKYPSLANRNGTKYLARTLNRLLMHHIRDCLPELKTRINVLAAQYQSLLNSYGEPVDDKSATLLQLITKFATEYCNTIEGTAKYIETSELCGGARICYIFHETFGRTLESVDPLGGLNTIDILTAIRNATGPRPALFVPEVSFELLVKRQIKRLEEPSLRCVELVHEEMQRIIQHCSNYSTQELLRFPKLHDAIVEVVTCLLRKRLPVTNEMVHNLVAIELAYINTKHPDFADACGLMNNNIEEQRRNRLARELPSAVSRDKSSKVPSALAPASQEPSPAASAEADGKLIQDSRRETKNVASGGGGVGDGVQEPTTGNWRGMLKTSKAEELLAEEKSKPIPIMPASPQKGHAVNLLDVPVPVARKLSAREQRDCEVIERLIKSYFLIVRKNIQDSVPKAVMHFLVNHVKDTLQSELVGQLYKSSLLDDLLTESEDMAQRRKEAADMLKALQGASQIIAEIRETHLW

Drp1/Fis1 interaction, sequence (O00429 whole entry): as above

In the case of CN(C)c1ccc(C2Nc3ccc4ccccc4c3C3=C2C(=O)CC(C)(C)C3)cc1Br (stereo not shown) [compound 968], the “inhibition of cancer cell growth” value (cancer cells; cancer cells) is given as “highly specific for inhibiting cancer cell growth” and the “effect on normal cells” value (cancer cells; normal (nontransformed) cells) is given as “little effect”.
In the case of O=C(O)C(=O)CBr [3-bromopyruvate], the tumor growth [1] is given as “slow down the growth”.
In the case of “P110: polypeptide P110, DLLPRGT, inhibitor of Drp1”, the “selectivity for Drp1/Fis1 interaction over Drp1 interaction with other ligands” value (Drp1/Fis1 interaction) is listed as “more selective for blocking Drp1/Fis1 interaction”.
In the case of CC1=C2C[C@H]3[C@@H](CC=C4C[C@@H](O)CC[C@@]43C)[C@@H]2CC[C@]12O[C@@H]1C[C@H](C)CN[C@H]1[C@H]2C [Cyc], the anti-proliferative effect [2] is listed as “modest anti-proliferative effect”.
In the case of CS(=O)(=O)c1ccc(C(=O)Nc2ccc(Cl)c(-c3ccccn3)c2)c(Cl)c1 [GDC-0449], the anti-proliferative effect [2] is given as “modest anti-proliferative effect”.
For C=C1CC[C@H](O)C/C1=C/C=C1\CCC[C@]2(C)[C@@H]([C@H](C)CCCC(C)C)CC[C@@H]12 [VD3], the anti-proliferative effect [2] is given as “modest anti-proliferative effect”.
In the case of Cc1ncc(C[n+]2csc(CCO)c2C)c(=O)[nH]1 [oxythiamine], the tumor growth [1] is given as “slow down the growth”.
For COc1cc(-n2c(=S)[nH]c3ccccc3c2=O)c(Cl)cc1Cl [Mdivi 1], the “cytochrome c release from mitochondria” value (mitochondria) is given as “block Bid-activated Bax/Bak-dependent cytochrome c release” and the IC50 (dynamin GTPase) is given as about 50 µM.
